A word on the IC50: it is the midpoint of a concentration-inhibition curve. Read a low IC50 as greater potency.

The assay deals with T1, TGF R1 kinase (Homo sapiens, UniProt P36897).
T1 sequence (P36897 34-503): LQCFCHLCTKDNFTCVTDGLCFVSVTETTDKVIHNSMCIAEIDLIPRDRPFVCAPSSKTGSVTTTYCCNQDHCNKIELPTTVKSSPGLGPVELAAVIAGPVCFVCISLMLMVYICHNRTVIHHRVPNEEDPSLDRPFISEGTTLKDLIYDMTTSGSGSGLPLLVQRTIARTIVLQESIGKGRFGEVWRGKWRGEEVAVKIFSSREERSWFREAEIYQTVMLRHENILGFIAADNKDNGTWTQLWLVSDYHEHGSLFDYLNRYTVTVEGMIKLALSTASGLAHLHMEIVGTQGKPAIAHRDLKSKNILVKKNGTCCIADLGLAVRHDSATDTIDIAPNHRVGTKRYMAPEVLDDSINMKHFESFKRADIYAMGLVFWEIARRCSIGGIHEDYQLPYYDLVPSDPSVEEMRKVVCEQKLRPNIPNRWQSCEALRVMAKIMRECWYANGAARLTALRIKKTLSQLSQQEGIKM
The assay can be described thus: TGF-β inhibition assay: phosphorylation of the substrate casein by TGF R1 kinase. It counts as biochemical. The note with it: table names no assay; casein assay of Example 2: 2.5 μM ATP, 100 μM casein, 6.4 nM TGF R1 kinase. Here is the method:
Invention compounds were tested for their abilities to inhibit the phosphorylation of the substrate casein. The assay was conducted as follows: Compound dilutions and reagents were prepared fresh daily. Compounds were diluted from DMSO stock solutions to 2 times the desired assay concentration, keeping final DMSO concentration in the assay less than or equal to 1%. TGF RI kinase was diluted to 4 times the desired assay concentration in buffer and DTT. ATP and casein were diluted into 4× reaction buffer, and gamma-^32P-ATP was added at 50 μCi/mL.
The assay was performed by adding 10 μl of the enzyme to 20 μl of the compound solution. The reaction was initiated by the addition of 10 μl of the casein/ATP mix. Final assay conditions included 2.5 μM ATP, 100 μM casein, 6.4 nM TGF R1 kinase, and […] in 20 mM Tris buffer, pH 7.5. The reactions were incubated at room temperature for 45 minutes. The reactions were then stopped by transferring 23 μl of reaction mixture onto a phosphocellulose 96-well filter plate, which had been pre-wetted with 15 μl of 0.25M H3PO4 per well. After 5 minutes, the wells were washed 4× with 75 mM H3PO4 and once with 95% ethanol. The plate was dried, scintillation cocktail was added to each well, and the wells were counted in a Packard TopCount microplate scintillation counter. The ability of a compound to inhibit the enzyme was determined by comparing the counts obtained in the presence of the compound to those of the positive control (in the absence of compound) and the negative control (in the absence of enzyme).
In both of the assays referenced above, IC50 values can be determined with curve-fitting plots available with common software packages. Approximate IC50 values can be calculated using formula: IC50 (app)=A×i/(1−A) where A=fractional activity and i=total inhibitor concentration.
`c1ccc(-c2nc(Nc3ccncc3)c3cc[nH]c3n2)cc1` [Compound 2, 4-(4-aminopyridyl)-2-phenyl pyrollo[2,3d]pyrimidine] came in with a half-maximal inhibitory concentration (IC50) of 9400 nM. In turn, `Cc1noc2nc(-c3cccc(Cl)c3)nc(Nc3ccncc3)c12` [Compound 3] had an IC50 of 780 nM. In turn, `Cc1noc2nc(-c3cc(Br)ccc3F)nc(Nc3ccncc3)c12` [Compound 6] gave an IC50 of 270 nM.

As for `CCc1noc2nc(-c3cccc(Cl)c3)nc(Nc3ccncc3)c12` [Compound 7], 5070 nM corresponded to half-maximal inhibition (IC50). Consider `Cc1noc2nc(-c3cc(Cl)ccc3F)nc(Nc3ccncc3)c12` [Compound 8], for which the half-maximal inhibitory concentration (IC50) was 267 nM. The same measure for `Cc1noc2nc(-c3cccc(I)c3)nc(Nc3ccncc3)c12` [Compound 10]: 2440 nM; for `CCc1noc2nc(-c3cc(Cl)ccc3F)nc(Nc3ccncc3)c12` [Compound 11]: 1350 nM; for `Cc1noc2nc(-c3ccccc3F)nc(Nc3ccncc3)c12` [Compound 12]: 1380 nM. The figure for `Cc1noc2nc(-c3ccccc3Cl)nc(Nc3ccncc3)c12` [Compound 14] is 12800 nM; for `Cc1noc2nc(-c3cccc(Br)c3)nc(Nc3ccncc3)c12` [Compound 15] it is 1020 nM. The same measure for `Cc1noc2nc(-c3ccc(Cl)cc3)nc(Nc3ccncc3)c12` [Compound 17]: 4650 nM.

Regarding `Cc1cnccc1Nc1nc(-c2cc(Cl)ccc2F)nc2c1CCC2` [Compound 20], the half-inhibitory concentration (IC50) is 93 nM. The same measure for `NC(=O)c1cnccc1Nc1nc(-c2cc(Cl)ccc2F)nc2c1CCC2` [Compound 21]: 53 nM; for `Cc1cnccc1Nc1nc(-c2cc(Cl)ccc2F)nc2c1CNCC2` [Compound 22]: 6270 nM; for `Cc1cnccc1Nc1nc(-c2cc(Cl)ccc2F)nc2c1CCNC2` [Compound 23]: 1180 nM. The figure for `Cc1cnccc1Nc1nc(-c2cc(Cl)ccc2F)nc2c1CN(Cc1ccccc1)CC2` [Compound 30] is 16100 nM. The figure for `CCOC(=O)c1cnccc1Nc1nc(-c2cc(Cl)ccc2F)nc2c1CCC2` [Compound 32] is 6500 nM. `Cc1cnccc1Nc1nc(-c2cc(Cl)ccc2F)nc2c1COC2` [Compound 33, [2-(5-Chloro-2-fluorophenyl)-5,7-dihydrofuro[3,4-d]pyrimidin-4-yl]-(3-methyl-pyridin-4-yl)-amine]: the half-maximal inhibitory concentration (IC50) came to 3100 nM. The figure for `NC(=O)c1cnccc1Nc1nc(-c2cc(Cl)ccc2F)nc2c1COC2` [Compound 34, 4-[2-(5-Chloro-2-fluoro-phenyl)-5,7-dihydro-furo[3,4-d]pyrimidin-4-ylamino]-nicotinic amide] is 2250 nM; for `Fc1ccc(Cl)cc1-c1nc2c(c(Nc3ccncc3C(F)(F)F)n1)CCC2` [Compound 36] it is 170 nM. The molecule `O=C(c1cnccc1Nc1nc(-c2cc(Cl)ccc2F)nc2c1CCC2)N1CCCC1` [Compound 37] displayed an IC50 of 2240 nM. The same measure for `Cc1cnccc1Nc1nc(-c2cc(Cl)ccc2F)nc2c1CCCC2` [Compound 38, [2-(5-Chloro-2-fluorophenyl)-5,6,7,8-tetrahydroquinazolin-4-yl]-(3-methylpyridin-4-yl)-amine]: 252 nM. The same measure for `CNC(=O)c1cnccc1Nc1nc(-c2cc(Cl)ccc2F)nc2c1CCCC2` [Compound 40]: 50.1 nM.

The molecule `O=C(NC1CC1)c1cnccc1Nc1nc(-c2cc(Cl)ccc2F)nc2c1CCC2` [Compound 41] gave a concentration for half-maximal inhibition (IC50) of 1350 nM. For the molecule `O=C(NCC1CC1)c1cnccc1Nc1nc(-c2cc(Cl)ccc2F)nc2c1CCC2` [Compound 42], the IC50 was 1330 nM. The same measure for `Cc1cnccc1Nc1nc(-c2cc(Cl)ccc2F)nc2c1C(C)CC2` (centres unmarked) [Compound 43, [2-(5-Chloro-2-fluorophenyl)-5-methyl-6,7-dihydro-5H-cyclopentapyrimidin-4-yl]-(3-methyl-pyridin-4-yl)-amine]: 104 nM; for `CNC(=O)c1cnccc1Nc1nc(-c2cc(Cl)ccc2F)nc2c1OCC2` [Compound 44, 4-[2-(5-Chloro-2-fluorophenyl)-6,7-dihydrofuro[3,2-d]pyrimidin-4-ylamino]-N-methyl nicotinamide]: 148 nM. The same measure for `O=C(NC1CC1)c1cnccc1Nc1nc(-c2cc(Cl)ccc2F)nc2c1CCCC2` [Compound 45, 4-[2-(5-Chloro-2-fluorophenyl)-5,6,7,8-tetrahydroquinazolin-4-ylamino]-N-cyclopropyl nicotinamide]: 683 nM; for `CC1CCc2nc(-c3cc(Cl)ccc3F)nc(Nc3ccncc3C(N)=O)c21` (centres unmarked) [Compound 46]: 13 nM; for `CNC(=O)c1cnccc1Nc1nc(-c2cc(Cl)ccc2F)nc2c1C(C)CC2` (centres unmarked) [Compound 47, 4-[2-(5-Chloro-2-fluorophenyl)-5-methyl-6,7-dihydro-5H-cyclopentapyrimidin-4-ylamino]-N-methyl-nicotinamide]: 14.5 nM. The figure for `CCOC(=O)c1cnccc1Nc1nc(-c2cc(Cl)ccc2F)nc2c1C(C)CC2` (centres unmarked) [Compound 48, 4-[2-(5-Chloro-2-fluoro-phenyl)-5-methyl-6,7-dihydro-5H-cyclopentapyrimidin-4-ylamino]-nicotinic acid ethyl ester] is 262 nM.

`CC1CCc2nc(-c3cc(Cl)ccc3F)nc(Nc3ccncc3C(=O)O)c21` (centres unmarked) [Compound 49, 4-[2-(5-Chloro-2-fluorophenyl)-5-methyl-6,7-dihydro-5H-cyclopentapyrimidin-4-ylamino]-nicotinic acid] returned a 50% inhibitory concentration (IC50) of 85.3 nM. The figure for `O=C(O)c1cnccc1Nc1nc(-c2cc(Cl)ccc2F)nc2c1CCCC2` [Compound 50, 4-[2-(5-Chloro-2-fluorophenyl)-5,6,7,8-tetrahydroquinazolin-4-ylamino]-nicotinic acid] is 4080 nM; for `C[C@H](O)CNC(=O)c1cnccc1Nc1nc(-c2cc(Cl)ccc2F)nc2c1CCC2` [Compound 52] it is 238 nM.

In turn, `C[C@H](O)CNC(=O)c1cnccc1Nc1nc(-c2cc(Cl)ccc2F)nc2c1CCC2` [Compound 53] yielded a half-maximal inhibitory concentration (IC50) of 417 nM. The same measure for `O=C(NO)c1cnccc1Nc1nc(-c2cc(Cl)ccc2F)nc2c1CCC2` [Compound 54]: 486 nM. As for `C[C@@H](O)CNC(=O)c1cnccc1Nc1nc(-c2cc(Cl)ccc2F)nc2c1CCC2` [Compound 55], the 50% inhibitory concentration (IC50) came out at 639 nM. The figure for `CNCCNC(=O)c1cnccc1Nc1nc(-c2cc(Cl)ccc2F)nc2c1CCC2` [Compound 56] is 365 nM; for `C[C@H](O)CNC(=O)c1cnccc1Nc1nc(-c2cc(Cl)ccc2F)nc2c1CCCC2` [Compound 57] it is 436 nM. `NNC(=O)c1cnccc1Nc1nc(-c2cc(Cl)ccc2F)nc2c1CCC2` [Compound 58] showed a half-inhibitory concentration (IC50) of 62.6 nM. On to `CCN(CC)CCNC(=O)c1cnccc1Nc1nc(-c2cc(Cl)ccc2F)nc2c1CCCC2` [Compound 59], for which the IC50 was found to be 77.9 nM.

As for `Cc1cnccc1Nc1nc(-c2cc(Cl)ccc2F)nc2c1CC(C)(C)C2` [Compound 60, [2-(5-Chloro-2-fluoro-phenyl)-6,6-dimethyl-6.7-dihydro-5H-cyclopentapyrimidin-4-yl]-(3-methyl-pyridin-4-yl)-amine], the IC50 worked out at 2420 nM. The molecule `CC1(C)Cc2nc(-c3cc(Cl)ccc3F)nc(Nc3ccncc3C(F)(F)F)c2C1` [Compound 61] had a half-inhibitory concentration (IC50) of 6250 nM. The figure for `CC1(C)Cc2nc(-c3cc(Cl)ccc3F)nc(Nc3ccncc3C(N)=O)c2C1` [Compound 62, 4-[2-(5-Chloro-2-fluoro-phenyl)-6,6-dimethyl-6,7-dihydro-5H-cyclopentapyrimidin-4-ylamino]-nicotinamide] is 205 nM; for `CNC(=O)c1cnccc1Nc1nc(-c2cc(Cl)ccc2F)nc2c1CC(C)(C)C2` [Compound 63] it is 102 nM; for `C[C@@H](O)CNC(=O)c1cnccc1Nc1nc(-c2cc(Cl)ccc2F)nc2c1CC(C)(C)C2` [Compound 64] it is 1810 nM. The figure for `CC1(C)Cc2nc(-c3cc(Cl)ccc3F)nc(Nc3ccncc3C(=O)NC[C@H](O)CO)c2C1` [Compound 65] is 2790 nM; for `CNCCNC(=O)c1cnccc1Nc1nc(-c2cc(Cl)ccc2F)nc2c1CC(C)(C)C2` [Compound 66] it is 1250 nM. The same measure for `COC(=O)c1cnccc1Nc1nc(-c2ccccc2)nc2c1CCC2` [Compound 67]: 8850 nM.

As for `CNC(=O)c1cnccc1Nc1nc(-c2ccccc2)nc2c1CCC2` [Compound 68], the midpoint of inhibition, the IC50, lay at 289 nM.

Source of the values: patent US7223766B2, “Bi-cyclic pyrimidine inhibitors of TGFβ” (Scios, Inc., priority 2003, dated 2007).
